Reference: paper PMC5785531, “Pharmacokinetic parameters explain the therapeutic activity of antimicrobial agents in a silkworm infection model” (Scientific Reports, 2018)
≈ marks a conversion by molar mass, not a printed value.

Key:
[1] = system: S. aureus MSSA1; test: Silkworm systemic infection model, therapeutic activity (ED50); format: in vivo, Staphylococcus aureus; conditions: for ED50: Staphylococcus aureus, silkworms infected with S. aureus MSSA1 (Fig. 2), read-out: ED50
Excerpt: (§1) We synthesized 50 compounds (Fig. 2, Supplementary Table 1) using the Steglich esterification scheme[31] in the presence of a […], 1-ethyl-3-(3-dimethylaminopropyl)-carbodiimide hydrochloride (Fig. 1b). Antimicrobial activities of the compounds were examined by determining the MIC against S. aureus MRSA4 in vitro; therapeutic activities were examined using a systemic infection model of silkworms infected with S. aureus MSSA1.
A total of 108,373 compounds from the chemical library of the Drug Discovery Initiative at the University of Tokyo were screened for antibacterial activity against S. aureus strain MRSA4 as previously reported. Those compounds that inhibited the growth of MRSA4 at 100 µM were further evaluated for their therapeutic effects in silkworms infected with S. aureus strain MSSA1 according to previously reported studies[17],[21].

[2] = system: S. aureus MRSA4; test: MIC against S. aureus MRSA4 in vitro (broth dilution); format: cell-based; conditions: Staphylococcus aureus; S. aureus MRSA4 in vitro; SAR series (Fig. 2)
Excerpt: as §1, with “MSSA1. […]” for “MSSA1.”
Antimicrobial activity was assessed by determining the MIC by broth dilution assay according to our previous reports[21],[35],[36] as per the Clinical and Laboratory Standards Institute[37]. Briefly, serial dilutions of compound 5, compound 7, and positive controls were prepared in cation-adjusted Mueller-Hinton Broth (MHB, Difco, Franklin Lakes, NJ, USA), 100 µl of which was dispensed into each well of a round-bottomed 96-well plate. The final concentrations in the well ranged from 128 µg/ml to 0.0625 µg/ml. Bacteria were grown at 37 °C overnight on either Luria Bertani (tryptone 10 g/l, yeast extract 5 g/l, NaCl 10 g/l) or Tryptic Soy Broth (TSB, Difco) agar plates or sheep blood agar plates (Eiken Chemical Co. Ltd., Tokyo, Japan). Bacterial inoculum was prepared by direct suspension of the colonies in 0.9% saline, and adjusted to obtain a turbidity equivalent to a 0.5 McFarland standard using a spectrophotometer UV-1280 (Shimadzu Corp., Kyoto, Japan). The suspension was then diluted 1:20 in cation-adjusted MHB (Difco), and 10 µl of it was inoculated into each well of previously prepared 96-well plates containing compounds to obtain approximately 5 × 10^4 colony forming units/well and incubated at 37 °C for 20 h. […] Vancomycin (Wako Pure Chemicals) or norfloxacin (Sigma Aldrich, St Louis, MO, USA) were used as positive controls. Each plate contained a growth control well and a vehicle control well. The MIC was determined as the minimum concentration that inhibited the growth of the bacteria.

SMILES	MIC [2]	survival of the S. aureus-infected silkworms ([1]; S. aureus-infected silkworms)	ED50 [1]
O=C(OCc1cc(Cl)cc(Cl)c1)c1ccc([N+](=O)[O-])o1 [compound 1]	12.5 µg/mL (≈ 39.5 µM)	slightly prolonged the survival	> 95 mg/kg
O=C(OCc1cc(Cl)cc(Cl)c1)c1ccco1 [compound 2]	> 200 µg/mL		
O=C(OCc1cccc(Cl)c1)c1ccc([N+](=O)[O-])o1 [compound 3]	12.5 µg/mL (≈ 44.4 µM)		> 87 mg/kg
O=C(OCc1ccccc1)c1ccc([N+](=O)[O-])o1 [compound 4]	12.5 µg/mL (≈ 50.6 µM)		> 95 mg/kg
O=C(OCc1cccc(Cl)c1)c1ccc([N+](=O)[O-])s1 [compound 6]	0.5 µg/mL (≈ 1.68 µM)		65 mg/kg
O=C(OCc1ccc2ccccc2c1)c1ccc([N+](=O)[O-])o1 [compound 8]	> 200 µg/mL		> 100 mg/kg
O=C(OCc1ccc2ccccc2c1)c1ccc([N+](=O)[O-])s1 [compound 9]	1.6 µg/mL (≈ 5.11 µM)		> 105 mg/kg
O=C(NCc1cccc(Cl)c1)c1ccc([N+](=O)[O-])o1 [compound 10]	3.1 µg/mL (≈ 11 µM)		> 105 mg/kg
O=C(NCc1cccc(Cl)c1)c1ccc([N+](=O)[O-])s1 [compound 11]	6.3 µg/mL (≈ 21.2 µM)		> 170 mg/kg
CN(Cc1ccccc1)C(=O)c1ccc([N+](=O)[O-])s1 [compound 14]	50 µg/mL (≈ 181 µM)		> 210 mg/kg
O=C(COc1cc(Cl)cc(Cl)c1)c1ccc([N+](=O)[O-])o1 [compound 15]	50 µg/mL (≈ 158 µM)		> 105 mg/kg
O=C(COc1cc(Cl)cc(Cl)c1)c1ccc([N+](=O)[O-])s1 [compound 16]	50 µg/mL (≈ 151 µM)		> 220 mg/kg
O=C(OCc1cccc(Br)c1)c1ccc([N+](=O)[O-])o1 [compound 17]	12.5 µg/mL (≈ 38.3 µM)		> 220 mg/kg
O=C(OCc1cccc(Br)c1)c1ccc([N+](=O)[O-])s1 [compound 18]	1.6 µg/mL (≈ 4.68 µM)		53 mg/kg
O=C(OCc1cccc(F)c1)c1ccc([N+](=O)[O-])s1 [compound 19]	0.4 µg/mL (≈ 1.42 µM)		> 87 mg/kg
O=C(OCc1cc(F)cc(Cl)c1)c1ccc([N+](=O)[O-])s1 [compound 20]	0.4 µg/mL (≈ 1.27 µM)		17 mg/kg
O=C(OCc1cc(Br)cc(Br)c1)c1ccc([N+](=O)[O-])s1 [compound 21]	6.3 µg/mL (≈ 15 µM)		> 100 mg/kg
O=C(OCc1c(Br)c(Br)c(Br)c(Br)c1Br)c1ccc([N+](=O)[O-])s1 [compound 22]	> 200 µg/mL		
O=Cc1ccc(C(=O)OCc2cc(Cl)cc(Cl)c2)s1 [compound 23]	25 µg/mL (≈ 79.3 µM)		> 100 mg/kg
O=Cc1ccc(C(=O)OCc2cc(Br)cc(Br)c2)s1 [compound 24]	25 µg/mL (≈ 61.9 µM)		> 100 mg/kg
O=Cc1ccc(C(=O)OCc2cc(F)cc(Cl)c2)s1 [compound 25]	50 µg/mL (≈ 167 µM)		> 100 mg/kg
O=C(OCc1cc(Cl)cc(Cl)c1)c1ccc(Cl)s1 [compound 26]	> 200 µg/mL		
O=C(OCc1cc(Cl)cc(Cl)c1)c1ccc(Br)s1 [compound 27]	> 200 µg/mL		

The next lines start with results.

MIC [2]	SMILES	survival of the S. aureus-infected silkworms ([1]; S. aureus-infected silkworms)	ED50 [1]
> 200 µg/mL	O=C(OCc1cc(Cl)cc(Cl)c1)c1cc(Br)c(Br)s1 [compound 28]		> 100 mg/kg
1.6 µg/mL (≈ 5.06 µM)	O=C(OCc1cc(Cl)cc(Cl)c1)c1cc([N+](=O)[O-])n[nH]1 [compound 30]		> 210 mg/kg
> 200 µg/mL	Cc1ccc(C(=O)OCc2cc(Cl)cc(Cl)c2)s1 [compound 31]		
> 400 µg/mL	O=C(OCc1cc(Cl)cc(Cl)c1)c1cccc([N+](=O)[O-])n1 [compound 33]		
> 400 µg/mL	CC(=O)c1ccc(C(=O)OCc2cc(Cl)cc(Cl)c2)s1 [compound 34]		
> 400 µg/mL	O=C(OCc1cc(Cl)cc(Cl)c1)c1csc([N+](=O)[O-])c1 [compound 36]		
3.1 µg/mL (≈ 9.33 µM)	O=C(OCc1ccc(Cl)cc1Cl)c1ccc([N+](=O)[O-])s1 [compound 39]		28 mg/kg
1.6 µg/mL (≈ 4.62 µM)	CC(OC(=O)c1ccc([N+](=O)[O-])s1)c1ccc(Cl)cc1Cl (centres unmarked) [compound 40]		> 160 mg/kg
1.6 µg/mL (≈ 4.36 µM)	O=C(OCc1c(Cl)cc(Cl)cc1Cl)c1ccc([N+](=O)[O-])s1 [compound 41]		32 mg/kg
3.1 µg/mL (≈ 9.33 µM)	O=C(OCc1c(Cl)cccc1Cl)c1ccc([N+](=O)[O-])s1 [compound 42]		> 180 mg/kg
3.1 µg/mL (≈ 9.33 µM)	O=C(OCc1cc(Cl)ccc1Cl)c1ccc([N+](=O)[O-])s1 [compound 43]		> 180 mg/kg
6.3 µg/mL (≈ 20 µM)	O=C(OCc1c(F)cccc1Cl)c1ccc([N+](=O)[O-])s1 [compound 44]		> 180 mg/kg
1.6 µg/mL (≈ 4.85 µM)	Cc1ccc(Cl)c(COC(=O)c2ccc([N+](=O)[O-])s2)c1F [compound 45]		82 mg/kg
3.1 µg/mL (≈ 10.4 µM)	O=C(OCc1cc(F)cc(F)c1)c1ccc([N+](=O)[O-])s1 [compound 46]		81 mg/kg
3.1 µg/mL (≈ 11.2 µM)	Cc1ccc(COC(=O)c2ccc([N+](=O)[O-])s2)cc1 [compound 47]		33 mg/kg
3.1 µg/mL (≈ 10.4 µM)	O=C(OCc1ccc(Cl)cc1)c1ccc([N+](=O)[O-])s1 [compound 48]		58 mg/kg
> 400 µg/mL	COc1cc(COC(=O)c2ccc([N+](=O)[O-])s2)cc(OC)c1 [compound 49]		
3.1 µg/mL (≈ 9.07 µM)	O=C(OCc1cc2c(cc1Cl)OCO2)c1ccc([N+](=O)[O-])s1 [compound 50]		> 240 mg/kg
> 400 µg/mL	CS(=O)(=O)c1ccc(COC(=O)c2ccc([N+](=O)[O-])s2)cc1 [compound 51]		
25 µg/mL (≈ 75.5 µM)	O=C(NCc1cc(Cl)cc(Cl)c1)c1ccc([N+](=O)[O-])s1 [compound 52]		> 190 mg/kg
6.3 µg/mL (≈ 21.6 µM)	Cc1cc(C)cc(COC(=O)c2ccc([N+](=O)[O-])s2)c1 [compound 53]		> 210 mg/kg
6.3 µg/mL (≈ 20.4 µM)	CSc1ccc(COC(=O)c2ccc([N+](=O)[O-])s2)cc1 [compound 54]		43 mg/kg
25 µg/mL (≈ 81.6 µM)	CN(C)c1cccc(COC(=O)c2ccc([N+](=O)[O-])s2)c1 [compound 55]		
6.3 µg/mL (≈ 18.1 µM)	O=C(OCc1ccc(OC(F)(F)F)cc1)c1ccc([N+](=O)[O-])s1 [compound 57]		
